Assay [1] has as its system PD-L1 aAPC/CHO-K1 cells and Jurkat-PD-1-NFAT effector cells. In words: Nuclear factor of activated T-cells (NFAT) assay. As to conditions: Cricetulus griseus; PD-L1 aAPC/CHO-K1 cells with Jurkat-PD-1-NFAT effector cells, 24 hours. It counts as cell-based. As to the method: Example C. Nuclear Factor of Activated T-Cells (NFAT) Assay
PD-L1 aAPC/CHO-Klcells (Promega) were maintained in F-12 medium with addition of 10% FBS, 200 μg/ml Hygromycin B, 250 μg/ml Geneticin (G418). Jurkat-PD-1-NFAT effector cells (Promega) were cultured in RPMI 1640 medium supplemented with 10% FBS, 100 μg/ml Hygromycin B, 500 μg/ml G418. The culture media of PD-L1 aAPC/CHO-K1 cells were first replaced with assay medium (RPMI1640 medium with 1% FBS). The PD-L1 aAPC/CHO-K1 cells were then added in a white 384-well white clear bottom assay plate (CELLCOAT® Tissue Culture Plates, Greiner Bio-One) at 8000 per well in 10 μL assay medium. Test compounds were prepared by serial dilution in DMSO and 0.8 μL test compounds in DMSO were first transferred to the 384 REMP plate well (Thermofisher) by PlateMate Plus (Thermofisher) followed with addition of 50 μL plating medium. 5 μL compounds in the assay medium were transferred to the cells with 0.4% DMSO in the final assay at 2 μM. After removing the culture media, 10,000 Jurkat-PD-1-NFAT effector cells in 5 μL assay medium was dispensed into each well. The assay plate was incubated at 37° C., 5% CO2 for 24 hours. After the assay plate was equilibrated to room temp for 15 minutes, 20 µL/well of Bio-Glo™ reagent (Promega) were added. After 8 minutes incubation at room temperature, luminescence was read at with Pherastar microplate reader (BMG Labtech). The fold of induction (FOI) was calculated based on the ratio of luminescence normalized to the DMSO wells within each assay plate. The maximum percentage of induction was reported based on the ratio between the highest FOI of each compound and the maximum FOI of control compound within each assay plate. Wells with DMSO were served as the negative controls and wells containing control compound with the highest FOI were used as positive controls. EC50 determination was performed by fitting the curve of percent control activity versus the log of the compound concentration using the GraphPad Prism 6.0 software.

The target of the next assay is PD-1/PD-L1 (Homo sapiens (Human), UniProt Q9NZQ7). In words: Homogeneous Time-Resolved Fluorescence (HTRF) PD-1/PD-L1 binding assay. As to conditions: recombinant human PD-1 and PD-L1, 25° C., pH 7.4. As for the experimental part:
Example A. Homogeneous Time-Resolved Fluorescence (HTRF) PD-1/PD-L1 Binding Assay
The assays were conducted in a standard black 384-well polystyrene plate with a final volume of 20 μL. Inhibitors were first serially diluted in DMSO and then added to the plate wells before the addition of other reaction components. The final concentration of DMSO in the assay was 1%. The assays were carried out at 25° C. in the PBS buffer (pH 7.4) with 0.05% Tween-20 and 0.1% BSA. Recombinant human PD-L1 protein (19-238) with a His-tag at the C-terminus was purchased from AcroBiosystems (PD1-H5229). Recombinant human PD-1 protein (25-167) with Fc tag at the C-terminus was also purchased from AcroBiosystems (PD1-H5257). PD-L1 and PD-1 proteins were diluted in the assay buffer and 10 μL was added to the plate well. Plates were centrifuged and proteins were preincubated with inhibitors for 40 minutes. The incubation was followed by the addition of 10 μL of HTRF detection buffer supplemented with Europium cryptate-labeled anti-human IgG (PerkinElmer-AD0212) specific for Fc and anti-His antibody conjugated to SureLight®-Allophycocyanin (APC, PerkinElmer-AD0059H). After centrifugation, the plate was incubated at 25° C. for 60 min. before reading on a PHERAstar FS plate reader (665 nm/620 nm ratio). Final concentrations in the assay were—3 nM PD1,10 nM PD-L1, 1 nM europium anti-human IgG and 20 nM anti-His-Allophycocyanin. IC50 determination was performed by fitting the curve of percent control activity versus the log of the inhibitor concentration using the GraphPad Prism 5.0 software.

In another assay the target is PD-L1 (Homo sapiens (Human), UniProt Q9NZQ7). In words: PD-L1 whole blood internalization assay. The assay is classed as cell-based. As to conditions: 1 ng/ml human interferon γ, PD-L1 expression on CD14+ cells, read-out: Whole Blood (24 HR) IC50. As to the method: Example D. PD-L1 Whole Blood Internalization Assay
PD-L1, sequence (Q9NZQ7 19-290): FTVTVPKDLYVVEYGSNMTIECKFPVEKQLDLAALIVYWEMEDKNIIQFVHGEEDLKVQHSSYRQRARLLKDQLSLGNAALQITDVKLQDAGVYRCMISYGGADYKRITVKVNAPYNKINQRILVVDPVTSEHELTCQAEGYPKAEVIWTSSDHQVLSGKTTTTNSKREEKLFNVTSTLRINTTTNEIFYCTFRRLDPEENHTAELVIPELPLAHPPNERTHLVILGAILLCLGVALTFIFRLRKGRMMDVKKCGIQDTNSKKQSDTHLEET
To determine PD-L1 internalization in human whole blood, normal human blood (Biological Specialty Corp, Colmar. Pa.) was incubated in the presence or absence of a concentration range of test compounds and 1 ng/ml human interferon γ (R&D Systems Inc. Minn. […] Blood was then stained with PD-L1 (MIH1, eBioscience; or BD Biosciences San Jose, Calif.), CD14 (Life Technologies, Carlsbad, Calif.) for 30 minutes in the dark at room temperature. Whole Blood/red cells were lysed/fixed (lysis buffer BD Biosciences) for 5 minutes at 37° C. in the dark and then centrifuged at 1600 RPM for 5 minutes. Cells were resuspended in Stain Buffer (BD Bioscience, San Jose, Calif.) and transferred into 96 well round bottom plates (Corning). Cells were gated on CD14+(BD Biosciences) and PD-L1 expression determined by mean fluorescence intensity (MFI) (BD LSRFortessa™ X-20). IC50 determination was performed by fitting the curve of compound percent inhibition versus the log of the compound concentration using the GraphPad Prism 7.0 software.

PD-1/PD-L1, sequence (Q9NZQ7 19-238): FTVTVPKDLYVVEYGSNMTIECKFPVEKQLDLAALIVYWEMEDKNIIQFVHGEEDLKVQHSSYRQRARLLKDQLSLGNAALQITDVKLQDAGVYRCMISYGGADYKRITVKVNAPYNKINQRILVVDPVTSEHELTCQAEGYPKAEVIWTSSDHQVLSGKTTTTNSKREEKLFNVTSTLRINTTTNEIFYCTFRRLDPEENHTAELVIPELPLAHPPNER

In the case of `Cc1c(Nc2nc(C(F)F)nc3cc(CN4CC[C@@H](O)C4)cnc23)cccc1-c1cccc(-c2nc3cc(CN4CC[C@H](C(=O)O)C4)cc(C#N)c3o2)c1C` [Example 22, (S)-1-((7-cyano-2-(3′-(2-(difluoromethyl)-7-(((R)-3-hydroxypyrrolidin-1-yl)methyl)pyrido[3,2-d]pyrimidin-4-ylamino)-2,2′-dimethylbiphenyl-3-yl)benzo[d]oxazol-5-yl)methyl)pyrrolidine-3-carboxylic Acid], the EC50 (usually the concentration that produces a half-maximal response) in assay [1] lay within 0.01 to 0.1 µM. Besides, the IC50 (commonly the concentration needed to halve the response being measured) at PD-1/PD-L1 was at most 0.01 µM; at PD-L1, 0.01 to 0.1 µM.
In assay [1], `Cc1c(Nc2nc(C(F)F)nc3cc(CN4CC[C@@H](O)C4)cnc23)cccc1-c1cccc(-c2nc3cc(CN4CC[C@](C)(C(=O)O)C4)cc(C#N)c3o2)c1C` [Example 23, (S)-1-((7-cyano-2-(3′-(2-(difluoromethyl)-7-(((R)-3-hydroxypyrrolidin-1-yl)methyl)pyrido[3,2-d]pyrimidin-4-ylamino)-2,2′-dimethylbiphenyl-3-yl)benzo[d]oxazol-5-yl)methyl)-3-methylpyrrolidine-3-carboxylic Acid] gave an EC50 of at most 0.01 µM. For the same compound, the half-maximal inhibitory concentration (IC50) on PD-1/PD-L1 was at most 0.01 µM; at PD-L1, 0.01 to 0.1 µM.
On to `Cc1c(Nc2nc(C(F)F)nc3cc(CN4CC[C@@H](O)C4)cnc23)cccc1-c1cccc(-c2nc3cc(CN4CCC(C)(C(=O)O)CC4)cc(C#N)c3o2)c1C` [Example 24, (R)-1-((7-cyano-2-(3′-(2-(difluoromethyl)-7-((3-hydroxypyrrolidin-1-yl)methyl)pyrido[3,2-d]pyrimidin-4-ylamino)-2,2′-dimethylbiphenyl-3-yl)benzo[d]oxazol-5-yl)methyl)-4-methylpiperidine-4-carboxylic Acid], for which the EC50 in assay [1] fell in the range of 0.01 to 0.1 µM. For the same compound, the IC50 on PD-1/PD-L1 is at most 0.01 µM; on PD-L1 it was 0.01 to 0.1 µM.
In assay [1], `Cc1c(Nc2nc(C(F)F)nc3cc(CN4CC[C@@H](O)C4)cnc23)cccc1-c1cccc(-c2nc3cc(CN4CCC(C(=O)N(C)C)CC4)cc(C#N)c3o2)c1C` [Example 25, (R)-1-((7-cyano-2-(3′-(2-(difluoromethyl)-7-((3-hydroxypyrrolidin-1-yl)methyl)pyrido[3,2-d]pyrimidin-4-ylamino)-2,2′-dimethylbiphenyl-3-yl)benzo[d]oxazol-5-yl)methyl)-N,N-dimethylpiperidine-4-carboxamide] had an EC50 of 0.01 to 0.1 µM. The IC50 was at most 0.01 µM at PD-1/PD-L1 and 0.01 to 0.1 µM at PD-L1.
In the case of `CNC(=O)C1CCN(Cc2cc(C#N)c3oc(-c4cccc(-c5cccc(Nc6nc(C(F)F)nc7cc(CN8CC[C@@H](O)C8)cnc67)c5C)c4C)nc3c2)CC1` [Example 26, (R)-1-((7-cyano-2-(3′-(2-(difluoromethyl)-7-((3-hydroxypyrrolidin-1-yl)methyl)pyrido[3,2-d]pyrimidin-4-ylamino)-2,2′-dimethylbiphenyl-3-yl)benzo[d]oxazol-5-yl)methyl)-N-methylpiperidine-4-carboxamide], the EC50 in assay [1] is at most 0.01 µM. The IC50 was at most 0.01 µM at PD-1/PD-L1 and 0.01 to 0.1 µM at PD-L1.
For the compound `Cc1c(Nc2nc(C(F)F)nc3cc(CN4CC[C@@H](O)C4)cnc23)cccc1-c1cccc(-c2nc3cc(CN4CCC(C(=O)NCCC(=O)O)CC4)cc(C#N)c3o2)c1C` [Example 27, (R)-3-(1-((7-cyano-2-(3′-(2-(difluoromethyl)-7-((3-hydroxypyrrolidin-1-yl)methyl)pyrido[3,2-d]pyrimidin-4-ylamino)-2,2′-dimethylbiphenyl-3-yl)benzo[d]oxazol-5-yl)methyl)piperidine-4-carboxamido)propanoic Acid], the EC50 in assay [1] was 0.01 to 0.1 µM. The IC50 was at most 0.01 µM on PD-1/PD-L1 and 0.01 to 0.1 µM on PD-L1.
Regarding `Cc1c(Nc2nc(CO)nc3cc(CN4CC[C@@H](O)C4)cnc23)cccc1-c1cccc(-c2nc3cc(CN4CCC(C(=O)O)CC4)cc(C#N)c3o2)c1C` [Example 32, (R)-1-((7-cyano-2-(3′-(2-(hydroxymethyl)-7-((3-hydroxypyrrolidin-1-yl)methyl)pyrido[3,2-d]pyrimidin-4-ylamino)-2,2′-dimethylbiphenyl-3-yl)benzo[d]oxazol-5-yl)methyl)piperidine-4-carboxylic Acid], in assay [1], the EC50 lay in the range of 0.01 to 0.1 µM. Besides, the results for the IC50 on PD-1/PD-L1 and at PD-L1 were at most 0.01 µM and 0.01 to 0.1 µM, respectively.
In assay [1], `Cc1c(Nc2nc(C(F)F)cc3cc(CN4CC[C@@H](O)C4)cnc23)cccc1-c1cccc(-c2nc3cc(CN4CC[C@@](C)(C(=O)O)C4)cc(C#N)c3o2)c1C` [Example 34, (R)-1-((7-cyano-2-(3′-(6-(difluoromethyl)-3-(((R)-3-hydroxypyrrolidin-1-yl)methyl)-1,7-naphthyridin-8-ylamino)-2,2′-dimethylbiphenyl-3-yl)benzo[d]oxazol-5-yl)methyl)-3-methylpyrrolidine-3-carboxylic Acid] displayed a 50% effective concentration (EC50) of at most 0.01 µM. Besides, the IC50 at PD-1/PD-L1 was at most 0.01 µM; on PD-L1, 0.1 to 0.5 µM.
